Measured values: US12616753B2, “HSP70 inhibitors and methods of using same” (THE WISTAR INSTITUTE, priority 2020, dated 2026)

Columns and labels:
CCD 841 CoN cells = assay: Trypan Blue exclusion viability assay, normal colon epithelial cells; assay type: cell-based; details: 10 μM, 48 hours
MC38 cells [1] = assay: Membrane associated calreticulin analysis by flow cytometry; assay type: cell-based, mouse; details: 24 hours
Description: FIG. 6D: MC38 cells were treated with 5 μM AP-4-139B for 24 hours and subjected to flow cytometry, using Alexa488-tagged calreticulin antibody. *** p<0.001, n=4 biological replicates performed in duplicate. FIG. 6E: MC38 cells were treated with increasing concentrations of AP-4-139B, G-TPP, 17-AAG or Metformin for 3 hours and then assayed for extracellular ATP release. Three independent cultures were assayed for each treatment, and DMSO-treated cells were used as internal controls. Error bars represent standard deviation (SD).
Flow cytometry was used to detect calreticulin localization after exposure to Doxorubicin (positive control) or AP-4-139B. MC38 cells were plated at a density of 3×10^5 cells per well in 6-well plates. The following day, cells were treated with 1 μM of doxorubicin, 15 μM of AP-4-139B (MC38), or 5 μM of AP-4-139B (CT26). After 24 hours, cells were collected and stained with anti-CRT antibody (ab196158) (Abcam) diluted in a solution of 1% FBS in PBS for 30 minutes on ice in the dark. Cells were then washed with PBS and stained with DAPI (1 μg/mL) for 5 minutes prior to analysis. Samples were analyzed using a FACSCelesta (Becton Dickinson) flow cytometer. […] Fluorescent intensity of DAPI negative cells was measured and at least 10,000 events in the analysis gate were obtained.

MC38 and CT26 = assay: Alamar Blue cell viability assay, mouse CRC cell lines; assay type: cell-based; details: 72 hours
Description: FIGS. 5A-5F show AP-4-139B is efficacious against CRC in an immunocompetent model, and causes immune cell recruitment. FIGS. 5A-5B: Mouse CRC cell lines, MC38 (FIG. 5A) and CT26 (FIG. 5B), were plated at a density of 1,000 cells per well in 96-well plates. The next day, cells were treated with the indicated inhibitors for 72 hours. Cells were then subjected to the Alamar Blue cell viability assays. Shown are representative IC50 values of an average of six technical replicates and two biological replicates. FIG. 5C: Mouse CRC cell lines MC38 and CT26 were treated with 10 μM AP-4-139B for 24 or 48 hours and immunoblotted for HSP70, p53, AKT, Cleaved Lamin A (CLA), Cleaved Caspase 3, MRPS14, and GAPDH (loading control). The doublet detected for HSP70 is seen in other murine cell lines, and may represent a degradation product or post-translational modification. FIG. 5D: 1×10^6 MC38 cells were injected subcutaneously into the right flank of 6-8 week old male C57Bl/6 mice. Once tumors reached an approximate volume of 50 mm^3, mice were separated randomly into two groups: vehicle vs. AP-4-139B. Mice were treated with 10 mg/kg AP-4-139B every 48 hours. All mice were euthanized 20 days after the start of treatment. Tumor volumes were recorded using digital calipers and using the formula v=length×width^2×0.52. *** p<0.001. n=15 mice per group.

MC38 cells [2] = assay: Matrigel invasion assay; assay type: cell-based, mouse; details: low doses, 24 hours
Description: FIG. 24A: MC38 cells were subjected to invasion assays using BioCoat Matrigel transwells in the presence of the indicated concentrations of AP-4-139B. 24 hours later, cells were fixed and stained with Crystal Violet. Shown are representative images taken from 8 random fields of view per well. Scale bar=100 μm. FIG. 24B: Quantification of FIG. 24A *** p<0.001. FIG. 24C: Schematic representation of the metastasis assay. 4×10^5 MC38 cells were injected into the tail vein of 8-10 week old male C57Bl/6 mice. Mice were treated with i.p. injection of 10 mg/kg AP-4-139B every 48 hours. After 3 weeks, the lungs of mice were formalin fixed and H&E stained, and assessed for the presence of metastatic nodules. FIG. 24D: Representative images of lung metastases (black arrows) from C57Bl/6 mice injected with MC38 cells in the tail vein, followed by treatment with vehicle or AP-4-139B. Scale bar=250 μm. FIG. 24E: Quantification of FIG. 24D. n=5 mice per group. * p<0.05.
Matrigel invasion assays were carried out using 24-well Corning® BioCoat™ Matrigel Invasion Chambers with an 8.0 μm PET membrane (#354480). Transwells were first rehydrated with serum free DMEM for 2 hours at 37° C. […] Number of invaded cells per field (n=8 random fields of view per transwell) were quantified with ImageJSoftware (NIH), normalized to live cells, and expressed as mean±SEM.

## c1ccc(-c2cn3nc(CCCCCC[P+](c4ccccc4)(c4ccccc4)c4ccccc4)sc3n2)cc1 [AP-4-139B, Triphenyl(6-(6-phenylimidazo[2,1-b][1,3,4]thiadiazol-2-yl)hexyl)phosphonium bromide]
CCD 841 CoN cells
  toxicity to normal colon epithelial cells: far less sensitive
MC38 cells [1]
  calreticulin mobilization to the plasma membrane: calreticulin mobilization to the plasma membrane
MC38 and CT26
  IC50s in murine CRC lines (in words): comparable to that of oxaliplatin
MC38 cells [2]
  tumor cell migration and invasion: sufficient to inhibit tumor cell migration and invasion
